Literature values, collected in patent US20150150473A1, “Drug-Enhanced Neurofeedback” (McLean Hospital Corporation, priority 2008, published 2015).

Conditions: in vivo

For N[C@@H]1CON=C1O [DCS, d-cycloserine], the half-life is listed as “approximately 10 hours”.
